According to patent US20240199651A1, “ANTIBACTERIAL COMPOUNDS” (JANSSEN SCIENCES IRELAND UNLIMITED COMPANY, priority 2021, published 2024):
Read-outs that look alike come from different tables or passages of the source.

Assays:
[1] = Mitochondrial toxicity (Glu/Gal) assay; assay type: cell-based; conditions: for Score: mitotoxicity score, Glu/Gal assay; for Δ IC50, glu/IC50, gal: ratio IC50 glu / IC50 gal
[2] = system: Mycobacterium tuberculosis strain EH4.0 expressing green-fluorescent protein (GFP); test: microbe, parasite or virus in culture; assay type: cell-based
[3] = Chemical stability testing (LCMS); assay type: physicochemical; conditions: 30 µM
Method: • Add 3 μl of a 10 mM DMSO stock solution to 1 ml of the following solvents in a 1.5 ml HPLC vial. • DMSO (reference solution) • H2O/Acetonitril 1/1 (assay solution) • 0.1N HCl/Acetonitril 1/1 (assay solution) • Mix well, […] LCMS • Compare the chromatograms of the two assay solutions with the reference solution and report the additional peaks as degradation peaks

[4] = LM CLint (microsomal stability), human; assay type: in vitro ADME; conditions: for microsomal CLint at 1 µM: liver microsomes, read-out: CLint Microsomes, Human (h)
Excerpt: (§1) The compounds of the invention/examples may have advantages associated with in vitro potency, kill kinetics (i.e. bactericidal effect) in vitro, PK properties, food effect, safety/toxicity (including liver toxicity, coagulation, 5-LO oxygenase), metabolic stability, Ames II negativity, MNT negativity, aqueous based solubility (and ability to formulate) and/or cardiovascular effect e.g. on animals (e.g. anesthetized guinea pig). Data that is generated/calculated may be obtained using standard methods/assays, for instance that are available in the literature or which may be performed by a supplier (e.g. Microsomal Stability Assay—Cyprotex, Mitochondrial toxicity (Glu/Gal) assay—Cyprotex, as well as literature CYP cocktail inhibition assays). GSH can be measured (reactive metabolites, glucuronidation) to observe if a dihydrodiol is observed by LCMS (fragmentation ions), which would correspond to a dihydroxylation on the core heterocycle.
(§2) CLint Microsomes (μL/Min/Mg) in Dog (d), Human (h), Mouse (m) and Rat (r) (all at 1 μm)

[5] = LM CLint (microsomal stability), mouse; assay type: in vitro ADME; conditions: 1 μm; for microsomal CLint at 1 µM: microsomes, read-out: CLint Microsomes, Mouse (m)
Excerpt: as §1, §2

[6] = galactose medium (Glu/Gal mitotoxicity assay), read-out: IC50, gal
[7] = glucose medium (Glu/Gal mitotoxicity assay), read-out: IC50, glu
[8] = Test 1 (and/or Test 2), M. tuberculosis
[9] = Mycobacterium tuberculosis, Test 1 (and/or Test 2), M. tuberculosis

Compound	IC50 [1, 6] [µM]	IC50 [1, 7] [µM]	IC50 ([1]; read-out: IC50, gal) [µM]	IC50 ([1]; read-out: IC50, glu) [µM]	microsomal CLint at 1 µM [4] [µL/min/mg]	microsomal CLint at 1 µM [5] [µL/min/mg]	AC50 [2, 9] [µM]	also measured
CCc1nc2ncc(Cl)cn2c1C(=O)NCc1ccc(-c2nc3n(n2)CCN(S(=O)(=O)C(F)(F)F)C3)c(F)c1 [Compound 4]	> 100	> 100						pIC50 [2, 8]: 7.90
CCc1nc2nc(C)c(Cl)cn2c1C(=O)NCc1ccc(-c2nc3n(n2)CCN(S(=O)(=O)C(F)(F)F)C3)cc1 [Compound 8]	41.7	51.2						Score [1]: [x]1; Δ IC50, glu/IC50, gal [1]: 1.23; pIC50 [2, 8]: 7.58
CCc1nc2cc(OC)c(Cl)cn2c1C(=O)NCc1ccc(-c2nc3n(n2)CCN(S(=O)(=O)C(F)(F)F)C3)c(F)c1 [Compound 10]			> 200	> 200				chemical stability, % by LCMS ([3]; 72 h): 97.03%; chemical stability, % by LCMS ([3]; 72 h, pH 1.6): 100%
CCc1nc2cc(NC)c(Cl)cn2c1C(=O)NCc1ccc(-c2nc3n(n2)CCN(S(=O)(=O)C(F)(F)F)C3)c(F)c1 [Compound 13]			23.5	29.5				Score [1]: [x]1; Δ IC50, glu/IC50, gal [1]: 1.25; IC50 [2, 9]: > 0.5 µM
CCc1nc2ccc(Cl)cn2c1C(=O)NCc1cnc(-c2nc3n(n2)CCN(S(=O)(=O)C(F)(F)F)C3)c(F)c1 [Compound 15]			> 200	> 200	16.2	50.6		chemical stability, % by LCMS ([3]; 72 h): 97.03%; chemical stability, % by LCMS ([3]; 72 h, pH 1.6): 97.49%
CCc1nc2nc3c(cn2c1C(=O)NCc1ccc(-c2nc4n(n2)CCN(S(=O)(=O)C(F)(F)F)C4)c(F)c1)CCOC3 [Compound 18]			184	> 200	20.1	36.9		Score [1]: [x]1; Δ IC50, glu/IC50, gal [1]: >1.09
CCc1nc2cc(Cl)c(C)cn2c1C(=O)NCc1ccc(-c2nc3n(n2)CCN(S(=O)(=O)C(F)(F)F)C3)c(F)c1 [Compound 19]	> 25	> 25						IC50 [2, 9]: 0.331 µM
CCc1nc2ccc(C)cn2c1C(=O)NCc1ccc(-c2nc3n(n2)CCN(S(=O)(=O)C(F)(F)F)C3)cc1 [Compound 24]			> 200	> 200	169	76.3		chemical stability, % by LCMS ([3]; 0 h): 100%; chemical stability, % by LCMS ([3]; 0 h, pH 1.6): 100%; chemical stability, % by LCMS ([3]; 0 h, pH 9): 89.46%; chemical stability, % by LCMS ([3]; 48 h): 100%; chemical stability, % by LCMS ([3]; 48 h, pH 1.6): 100%; chemical stability, % by LCMS ([3]; 48 h, pH 9): 43.8%
CCc1nc2ncc(C)cn2c1C(=O)NCc1ccc(-c2cc3n(n2)CCN(S(=O)(=O)C(F)(F)F)C3)cc1 [Compound 44]			> 200	> 200	176	20		chemical stability, % by LCMS ([3]; 48 h): 100%; chemical stability, % by LCMS ([3]; 48 h, pH 1.6): 100%
CCc1nc2ncc(C)cn2c1C(=O)NCc1ccc(-c2nc3n(n2)CCN(S(=O)(=O)N2CCCC2)C3)cc1 [Compound 47]			> 200	> 200	58.5	13.9		chemical stability, % by LCMS ([3]; 48 h): 99%; chemical stability, % by LCMS ([3]; 48 h, pH 1.6): 100%
CCc1nc2ncc(C)cn2c1C(=O)NCCc1ccc(-c2nc3n(n2)CCN(S(=O)(=O)C(F)(F)F)C3)cc1 [Compound 66]			> 200	> 200	39.6	92.3		IC50 [2, 9]: 0.269 µM; chemical stability, % by LCMS ([3]; 0 h): 91%; chemical stability, % by LCMS ([3]; 48 h): 98%; chemical stability, % by LCMS ([3]; 48 h, pH 1.6): 98%
CCc1nc2ncc(C)cn2c1C(=O)NC1(c2ccc(-c3nc4n(n3)CCN(S(=O)(=O)C(F)(F)F)C4)cc2)CC1 [Compound 68]			> 100	> 100				IC50 [2, 9]: > 0.501 µM
CCc1nc2ncc(C)cn2c1C(=O)NCc1cccc(Cc2nc3n(n2)CCN(S(=O)(=O)C(F)(F)F)C3)c1 [Compound 71]			> 200	> 200				IC50 [2, 9]: > 0.501 µM
CCc1nc2ncc(C)cn2c1C(=O)NCc1coc(-c2nc3n(n2)CCN(S(=O)(=O)C(F)(F)F)C3)n1 [Compound 72]			> 200	> 200				IC50 [2, 9]: > 0.501 µM
CCc1nc2ncc(C)cn2c1C(=O)NCc1ccc(-c2cc3n(n2)CCN(S(=O)(=O)C(F)(F)F)C3)c(C)c1 [Compound 84]	62.5	> 200						CLint Microsomes, Human (h) ([4]; 1 μm): 205 μL/Min/Mg; CLint Microsomes, Mouse (m) [5]: 21.2 μL/Min/Mg; Δ IC50, glu/IC50, gal [1]: >3.2; AC50 [2]: 0.0076 µM
CCc1nc2ncc(C)cn2c1C(=O)NCc1ccc(-c2nn3c(c2C)CN(S(=O)(=O)C(F)(F)F)CC3)cc1 [Compound 85]	30.1	> 200						Score [1]: [x]3; Δ IC50, glu/IC50, gal [1]: >6.65; AC50 [2, 8]: 0.018 µM
CCc1nc2ncc(C)cn2c1C(=O)NCc1ccc(-c2nc3n(c2C)CCN(S(=O)(=O)C(F)(F)F)C3)cc1 [Compound 86]			> 100	> 100			0.03	
CCc1nc2ncc(C)cn2c1C(=O)NCc1ccc(-c2nn3c(c2C)CN(S(=O)(=O)C(F)(F)F)CC3)c(F)c1 [Compound 87]	25.4	85.8						Δ IC50, glu/IC50, gal [1]: 3.38; AC50 [2]: 0.036 µM
CCc1nc2ncc(C)cn2c1C(=O)NCc1ccc(-c2nn3c(c2OC)CN(S(=O)(=O)C(F)(F)F)CC3)cc1 [Compound 88]								AC50 [2, 8]: 0.00866 µM
CCc1nc2ncc(C)cn2c1C(=O)NCc1cccc(-c2cnn3c2CN(S(=O)(=O)C(F)(F)F)CC3)c1 [Compound 92]			133	195			> 0.5	Score [1]: [x]1; Δ IC50, glu/IC50, gal [1]: 1.47
Cc1cnc2nc(C3CC3)c(C(=O)NCc3ccc(-c4cn5c(n4)CN(S(=O)(=O)C(F)(F)F)CC5)cc3)n2c1 [Compound 94]			> 200	> 200	98.1	18.1	0.063	
Cc1cnc2nc(C3CC3)c(C(=O)NCc3ccc(-c4nc5n(n4)CCN(S(=O)(=O)C(F)(F)F)C5)c(C)c3)n2c1 [Compound 98]			97.8	177	51.8	26.9	0.017	Score [1]: [x]1; Δ IC50, glu/IC50, gal [1]: 1.81
O=C(NCc1ccc(-c2cc3n(n2)CCN(S(=O)(=O)C(F)(F)F)C3)cc1)c1c(C2CC2)nc2ncc(Cl)cn12 [Compound 104]	> 50	> 50					0.11	
Cc1cnc2nc(C3CC3)c(C(=O)NCc3ccc(-c4cc5n(n4)CCN(S(=O)(=O)C(C)C)C5)cc3)n2c1 [Compound 106]			> 100	> 100	111	83.4		
Cc1cnc2nc(C3CC3)c(C(=O)NCc3ccc(-c4cn5c(n4)CN(S(=O)(=O)C(F)(F)F)CC5)c(F)c3)n2c1 [Compound 112]	> 100	> 100					0.0095	
Cc1cnc2nc(C(F)(F)F)c(C(=O)NCc3ccc(-c4nc5n(n4)CCN(S(=O)(=O)C(F)(F)F)C5)cc3)n2c1 [Compound 113]	> 100	> 100					0.032	
Cc1cnc2nc(C(F)(F)F)c(C(=O)NCc3ccc(-c4cc5n(n4)CCN(S(=O)(=O)C(F)(F)F)C5)cc3)n2c1 [Compound 114]	> 12.5	> 12.5					0.0098	
O=C(NCc1ccc(-c2nc3n(n2)CCN(S(=O)(=O)C(F)(F)F)C3)c(F)c1)c1c(C2CC2)nc2ccccn12 [Compound 123]	> 100	> 100					0.018	
CCc1nc2ncc(C)cn2c1C(=O)NCc1ccc(-c2cc3n(n2)CCN(S(=O)(=O)C(F)(F)F)C3)nc1 [Compound 127]			> 200	> 200	31.5	9.29	0.049	
CCc1nc2ncc(C)cn2c1C(=O)NCc1cnc(-c2cc3n(n2)CCN(S(=O)(=O)C(F)(F)F)C3)c(C)c1 [Compound 129]			> 200	> 200	50.4	29.4		
